The test system of assay [1] is N87. In words: Proliferation inhibition assay in vitro, N87 (CellTiter-Glo). Type of assay: cell-based. The following applies: Homo sapiens; 72 hours; read-out: IC50(nM) cell N87. An outline of the steps: (§1)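 Cells were seeded at 8.8×10^4 cells/mL for BT-474 or 6.6×10^4 cells/mL for N87 and grown overnight. Compound was added at 9 concentrations in duplicate for 72 h at 37 °C, 5% CO2. Viability was measured by CellTiter-Glo.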
(Cellular ATP, detected with luciferase, serves as a proxy for viable cell number.)

The target in assay [2] is EGFR kinase (Homo sapiens, UniProt P00533). In words: Enzymatic experiment on EGFR (HTRF kinEASE-TK). In kind it is biochemical. The following applies: ATP 1.65 μM; read-out: Kinase IC50 (nM) in vitro EGFR. In a few lines:
(§2)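 HTRF kinEASE-TK with biotinylated TK substrate in HEPES pH 7.0 buffer containing MnCl2, MgCl2 and DTT; ErbB2 at 0.06 ng/μl with 4 μM ATP, EGFR at 0.06 units/μl with 1.65 μM ATP, 30 min at room temperature after 5 min enzyme/substrate–compound preincubation. Ten-point 3-fold dilutions; Eu antibody/SA-XL665 detection, 665/620 ratio.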
(In general: In TR-FRET formats the signal depends on donor and acceptor labels being close together.)

The target of assay [3] is ErbB2 kinase (Homo sapiens, UniProt P04626). In words: Enzymatic experiment on ErbB2 (HTRF kinEASE-TK). Type of assay: biochemical. As to conditions: ATP 4 μM; read-out: Kinase IC50 (nM) in vitro ErbB2. In a few lines:
as §2

Assay [4] relates to BT-474. The experiment in a line: Proliferation inhibition assay in vitro, BT-474 (CellTiter-Glo). In kind it is cell-based. The following applies: Homo sapiens, 72 hours, read-out: IC50(nM) cell BT-474. In a few lines: as §1

EGFR kinase, sequence (P00533 25-1210): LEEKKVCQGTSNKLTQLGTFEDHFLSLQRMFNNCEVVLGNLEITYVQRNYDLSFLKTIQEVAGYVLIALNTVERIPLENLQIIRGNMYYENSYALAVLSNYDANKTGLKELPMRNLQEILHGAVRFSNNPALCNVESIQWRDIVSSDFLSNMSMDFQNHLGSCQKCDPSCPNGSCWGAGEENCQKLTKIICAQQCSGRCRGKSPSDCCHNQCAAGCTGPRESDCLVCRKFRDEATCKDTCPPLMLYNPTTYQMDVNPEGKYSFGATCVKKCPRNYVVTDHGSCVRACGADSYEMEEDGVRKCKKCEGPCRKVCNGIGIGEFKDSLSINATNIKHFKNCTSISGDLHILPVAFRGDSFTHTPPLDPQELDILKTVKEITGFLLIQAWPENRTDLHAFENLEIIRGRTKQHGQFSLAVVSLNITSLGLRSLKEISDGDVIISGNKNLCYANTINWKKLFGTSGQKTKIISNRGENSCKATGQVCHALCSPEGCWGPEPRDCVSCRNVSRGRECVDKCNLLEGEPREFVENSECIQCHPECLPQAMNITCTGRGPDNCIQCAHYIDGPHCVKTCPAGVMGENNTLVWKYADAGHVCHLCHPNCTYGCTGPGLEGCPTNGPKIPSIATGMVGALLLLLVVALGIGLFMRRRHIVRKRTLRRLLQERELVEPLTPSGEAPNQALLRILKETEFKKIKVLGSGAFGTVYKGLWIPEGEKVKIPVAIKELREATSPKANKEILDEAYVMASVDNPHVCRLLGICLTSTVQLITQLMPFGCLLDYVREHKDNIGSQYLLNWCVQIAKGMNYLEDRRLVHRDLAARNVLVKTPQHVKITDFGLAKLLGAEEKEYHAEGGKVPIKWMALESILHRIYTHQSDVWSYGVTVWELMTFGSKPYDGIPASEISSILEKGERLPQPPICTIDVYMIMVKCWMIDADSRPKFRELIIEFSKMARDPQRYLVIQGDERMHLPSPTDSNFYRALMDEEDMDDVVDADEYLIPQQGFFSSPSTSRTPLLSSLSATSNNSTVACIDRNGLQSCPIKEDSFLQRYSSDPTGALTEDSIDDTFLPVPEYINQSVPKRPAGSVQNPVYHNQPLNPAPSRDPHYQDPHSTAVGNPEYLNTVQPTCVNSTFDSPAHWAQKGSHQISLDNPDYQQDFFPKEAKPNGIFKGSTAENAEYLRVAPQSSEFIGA
ErbB2 kinase, sequence (P04626 23-1255): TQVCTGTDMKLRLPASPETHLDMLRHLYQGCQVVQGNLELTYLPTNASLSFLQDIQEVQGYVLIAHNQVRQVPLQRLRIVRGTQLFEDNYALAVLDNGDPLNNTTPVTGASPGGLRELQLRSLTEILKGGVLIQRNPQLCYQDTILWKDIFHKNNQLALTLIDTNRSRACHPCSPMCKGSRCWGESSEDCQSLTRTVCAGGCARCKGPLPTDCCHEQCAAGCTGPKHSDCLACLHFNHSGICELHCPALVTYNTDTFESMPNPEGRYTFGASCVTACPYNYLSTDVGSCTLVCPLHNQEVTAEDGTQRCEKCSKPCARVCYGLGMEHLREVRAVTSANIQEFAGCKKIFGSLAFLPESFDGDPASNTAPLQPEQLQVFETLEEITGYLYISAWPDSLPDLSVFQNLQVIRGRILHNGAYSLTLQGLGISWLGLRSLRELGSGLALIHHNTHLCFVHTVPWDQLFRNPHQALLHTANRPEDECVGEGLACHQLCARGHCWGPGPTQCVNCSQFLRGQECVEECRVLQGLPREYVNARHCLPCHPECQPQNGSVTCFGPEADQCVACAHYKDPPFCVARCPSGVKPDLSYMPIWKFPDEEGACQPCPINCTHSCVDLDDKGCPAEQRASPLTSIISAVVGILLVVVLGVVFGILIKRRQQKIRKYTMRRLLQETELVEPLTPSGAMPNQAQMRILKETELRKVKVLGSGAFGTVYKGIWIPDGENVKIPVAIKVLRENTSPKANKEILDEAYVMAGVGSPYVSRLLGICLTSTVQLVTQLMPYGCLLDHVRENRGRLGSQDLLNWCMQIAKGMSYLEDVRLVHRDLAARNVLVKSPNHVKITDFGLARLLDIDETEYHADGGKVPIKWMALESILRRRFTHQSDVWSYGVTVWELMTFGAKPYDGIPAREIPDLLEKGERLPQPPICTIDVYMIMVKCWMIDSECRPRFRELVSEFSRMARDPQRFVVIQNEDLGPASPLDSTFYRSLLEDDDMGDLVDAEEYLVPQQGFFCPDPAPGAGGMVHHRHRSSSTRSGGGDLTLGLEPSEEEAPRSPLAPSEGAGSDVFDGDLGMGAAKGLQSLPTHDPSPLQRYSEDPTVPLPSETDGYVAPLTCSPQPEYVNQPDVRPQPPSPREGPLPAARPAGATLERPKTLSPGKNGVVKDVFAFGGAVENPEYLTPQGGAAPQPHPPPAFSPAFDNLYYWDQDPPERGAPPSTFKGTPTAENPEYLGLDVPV

Turning to `Cc1cc(Nc2ncnc3ccc(NC4=NC5(CC5)CO4)cc23)ccc1Oc1cc2nncn2cn1` [Embodiment 72, N′-(4-([1,2,4]triazolo[4,3-c]pyrimidin-7-yloxy)-3-methylphenyl)-N^6-(6-oxa-4-azaspiro[2.4]hept-4-en-5-yl)quinazolin-4,6-diamine], the IC50 (commonly the midpoint of a concentration-inhibition curve) in assay [1] stood at 34.2 nM; in assay [2] it was 4.3 nM; in assay [3] it was 0.9 nM; in assay [4] it was 30 nM.
On to `Cc1cc(Nc2ncnc3ccc(NC(=O)Nc4cc(C)n(C)n4)cc23)ccc1Oc1cc2nncn2cn1` [Embodiment 73, 1-(4-((4-([1,2,4]triazolo[4,3-c]pyrimidin-7-yloxy)-3-methylphenyl)amino)quinazolin-6-yl)-3-(1,5-dimethyl-1H-pyrazol-3-yl)urea], for which the IC50 is 162 nM in assay [1], 34.9 nM in assay [2], 4.21 nM in assay [3] and 139 nM in assay [4].
With `Cc1coc(NC(=O)Nc2ccc3ncnc(Nc4ccc(Oc5cc6nncn6cn5)c(C)c4)c3c2)n1` [Embodiment 74, 1-(4-((4-([1,2,4]triazolo[4,3-c]pyrimidin-7-yloxy)-3-methylphenyl)amino)quinazolin-6-yl)-3-(4-methyloxazol-2-yl)urea], the IC50 is 106 nM in assay [1], 43.3 nM in assay [2], 2.4 nM in assay [3] and 85.8 nM in assay [4].
With `C=CC(=O)Nc1cccc(-c2ccc3ncnc(Nc4ccc(Oc5cc6nncn6cn5)c(C)c4)c3c2)c1` [Embodiment 75, N-(3-(4-((4-([1,2,4]triazolo[4,3-c]pyrimidin-7-yloxy)-3-methylphenyl)amino)quinazolin-6-yl)phenyl)acrylamide], the 50% inhibitory concentration (IC50) in assay [1] stood at 15 nM; in assay [2], 19.2 nM; in assay [3] it was 1.34 nM; in assay [4], 9 nM.
In the same order, the values of `Cc1cc(Nc2ncnc3ccc(-c4cccc(NC(=O)/C=C/CN(C)C)c4)cc23)ccc1Oc1cc2nncn2cn1` [Embodiment 76, (E)-N-(3-(4-((4-([1,2,4]triazolo[4,3-c]pyrimidin-7-yloxy)-3-methylphenyl)amino)quinazolin-6-yl)phenyl)-4-(dimethylamino)but-2-enamide] are 42.8 nM, 82.2 nM, 4.9 nM and 27.9 nM.
Take `Cc1cc(Nc2ncnc3ccc(-c4cccc(F)c4)cc23)ccc1Oc1cc2nncn2cn1` [Embodiment 77, N-(4-([1,2,4]triazolo[4,3-c]pyrimidin-7-yloxy)-3-methylphenyl)-6-(3-fluorophenyl)-4-aminoquinazoline]: the IC50 in assay [1] turned out to be 509 nM; in assay [2], 23.6 nM; in assay [3], 5.03 nM; in assay [4], 254 nM.
Take `CC1(C)COC(Nc2ccc3ncnc(Nc4ccc(Oc5cc6nncn6cn5)c(Cl)c4)c3c2)=N1` [Embodiment 78, N′-[3-chloro-4-([1,2,4]triazolo[4,3-c]pyrimidin-7-yloxy)phenyl)-N^6-(4,4-dimethyl-4,5-dihydrooxazol-2-yl)quinazolin-4,6-diamine]: the IC50 was 22.3 nM in assay [1], 3.3 nM in assay [2], 1.8 nM in assay [3] and 13.2 nM in assay [4].
`Cc1cc(Nc2ncnc3ccc(-c4ccc(CNCCS(C)(=O)=O)s4)cc23)ccc1Oc1cc2nncn2cn1` [Embodiment 79]: the IC50 is 37.2 nM in assay [1], 7.7 nM in assay [2], 1.7 nM in assay [3] and 24.7 nM in assay [4].
`Cc1cc(Nc2ncnc3ccc(-c4cc[nH]c4)cc23)ccc1Oc1cc2nncn2cn1` [Embodiment 80, N-(4-([1,2,4]triazolo[4,3-c]pyrimidin-7-yloxy)-3-methylphenyl)-6-(1H-pyrrol-3-yl)quinazolin-4-amine]: the IC50 in assay [1] came to 36 nM; in assay [2], 12.6 nM; in assay [3], 1 nM; in assay [4] it was 120 nM.
